Results from patent US20260226108A1, “FUSION POLYPEPTIDE AJ007 AND USE THEREOF” (NANJING ANJI BIOTECHNOLOGY CO, LTD., priority 2023, published 2026).
Residues, ends and D or L forms follow the SMILES beside them.

Assay: Ocular tissue distribution at equimolar concentration, eye dropping or intravitreal injection (Example 5), ELISA
Format: in vivo, C57BL/6J mice
Text: This example provides an ocular tissue distribution comparison experiment of the polypeptide eye drops (AJ007 eye drops) in Example 2 with an equimolar concentration of the multifunctional fusion polypeptide VI (HM-1), a multifunctional fusion polypeptide VI preparation (HM-1 preparation, with a polypeptide being HM-1 and a formulation of other excipients being the same as the AJ007 eye drops), a fusion polypeptide AJ007 preparation (TAT-HM-1, with a polypeptide being AJ007 and pure water as a vehicle) after eye dropping, and the multifunctional fusion polypeptide VI (HM-1) after intravitreal injection, which is specifically described below.
Animal grouping: […] C57BL/6J mice were randomly divided into a total of 7 time point groups, including 0 h, 10 min, 1 h, 3 h, 7 h, 12 h, and 24 h, with 2 mice in each group.
Experimental process: All the mice in the eye drop administration groups were administered bilateral eye drops 1 time, with 5 μL of a corresponding drug solution dropped into each eye, while 5 μL of a corresponding drug solution was injected into both eyes in the HM-1 intravitreal injection group. At the 7 time points of 0 h, 10 min, 1 h, 3 h, 7 h, 12 h, and 24 h after the completion of administration, the mice in the corresponding groups were respectively subjected to eyeball removal and blood collection, the collected whole blood was immediately centrifuged at 6,000 rpm for 5 minutes, and then, a supernatant was sucked and stored as a sample to be tested. Additionally, 3 tissue sites, namely the vitreous body, the retina, and the RPE/choroid complex, were isolated from an eyeball under a stereomicroscope, into which PBS was added at 1:10 for dilution, followed by grinding and centrifugation at 12,000 rpm for 5 minutes. A supernatant was sucked to serve as a sample to be tested. Subsequently, the concentration of HM-1 or fusion polypeptide AJ007 in each tissue was detected by an ELISA method.

Compound	maintenance time at the RPE/choroid complex (eye dropping)	maintenance time at the RPE/choroid complex (intravitreal injection)
C[C@H](NC(=O)CNC(=O)[C@H](CCCNC(=N)N)NC(=O)[C@H](CCCNC(=N)N)NC(=O)[C@H](CCCNC(=N)N)NC(=O)[C@H](CCCNC(=N)N)NC(=O)[C@H](CCC(N)=O)NC(=O)[C@H](CCCNC(=N)N)NC(=O)[C@H](CCCNC(=N)N)NC(=O)[C@H](CCCCN)NC(=O)[C@H](CCCCN)NC(=O)[C@H](CCCNC(=N)N)NC(=O)CNC(=O)[C@@H](N)Cc1ccc(O)cc1)C(=O)N[C@@H](CC(=O)O)C(=O)N[C@@H](CCCNC(=N)N)C(=O)N[C@@H](C)C(=O)NCC(=O)NCC(=O)NCC(=O)NCC(=O)N[C@@H](CCCNC(=N)N)C(=O)NCC(=O)N[C@@H](CC(=O)O)C(=O)O [AJ007] (H-YGRKKRRQRRRRGADRAGGGGRGD-OH; N-terminus and C-terminus assumed)	shorter	
C[C@H](NC(=O)CNC(=O)[C@@H](N)CCCNC(=N)N)C(=O)N[C@@H](CC(=O)O)C(=O)N[C@@H](CCCNC(=N)N)C(=O)N[C@@H](C)C(=O)NCC(=O)NCC(=O)NCC(=O)NCC(=O)N[C@@H](CCCNC(=N)N)C(=O)NCC(=O)N[C@@H](CC(=O)O)C(=O)O [HM-1, Arg-Gly-Ala-Asp-Arg-Ala-Gly-Gly-Gly-Gly-Arg-Gly-Asp] (H-RGADRAGGGGRGD-OH; N-terminus and C-terminus assumed)	very short	shorter
